Data published in ChEMBL document CHEMBL4665624, “Synthesis of 5-(4-(1H-phenanthro[9,10-d]imidazol-2-yl)benzylidene)thiazolidine-2,4-dione as promising DNA and serum albumin-binding agents and evaluation of antitumor activity” (Eur J Med Chem, 2019).
Active and inactive are the calls of the source. No cut-off for these calls is given here.

Columns and labels:
MOLT-4 = assay: Antitumor activity against human MOLT4 cells assessed as cell growth inhibition at 10 uM incubated for 48 hrs by sulforhodamine B assay; format: functional; conditions: read-out: GI
EKVX = assay: Antitumor activity against human EKVX cells assessed as cell growth inhibition at 10 uM incubated for 48 hrs by sulforhodamine B assay; format: functional; conditions: read-out: GI
HOP-92 = assay: Antitumor activity against human HOP92 cells assessed as cell growth inhibition at 10 uM incubated for 48 hrs by sulforhodamine B assay; format: functional; conditions: read-out: GI
NCI-H226 = assay: Antitumor activity against human NCI-H226 assessed as cell growth inhibition at 10 uM incubated for 48 hrs by sulforhodamine B assay; format: functional; conditions: read-out: GI
NCI-H23 = assay: Antitumor activity against human NCI-H23 cells assessed as cell growth inhibition at 10 uM incubated for 48 hrs by sulforhodamine B assay; format: functional; conditions: read-out: GI
COLO 205 = assay: Antitumor activity against human COLO205 cells assessed as cell growth inhibition at 10 uM incubated for 48 hrs by sulforhodamine B assay; format: functional; conditions: read-out: GI
HCT-116 = assay: Antitumor activity against human HCT116 cells assessed as cell growth inhibition at 10 uM incubated for 48 hrs by sulforhodamine B assay; format: functional; conditions: read-out: GI
HCT-15 = assay: Antitumor activity against human HCT15 cells assessed as cell growth inhibition at 10 uM incubated for 48 hrs by sulforhodamine B assay; format: functional; conditions: read-out: GI
SNB-19 = assay: Antitumor activity against human SNB-19 cells assessed as cell growth inhibition at 10 uM incubated for 48 hrs by sulforhodamine B assay; format: functional; conditions: read-out: GI
SNB-75 = assay: Antitumor activity against human SNB-75 cells assessed as cell growth inhibition at 10 uM incubated for 48 hrs by sulforhodamine B assay; format: functional; conditions: read-out: GI
U-251 = assay: Antitumor activity against human U251 cells assessed as cell growth inhibition at 10 uM incubated for 48 hrs by sulforhodamine B assay; format: functional; conditions: read-out: GI
LOX IMVI = assay: Antitumor activity against human LOX IMVI cells assessed as cell growth inhibition at 10 uM incubated for 48 hrs by sulforhodamine B assay; format: functional; conditions: read-out: GI
Malme-3M = assay: Antitumor activity against human MALME-3M cells assessed as cell growth inhibition at 10 uM incubated for 48 hrs by sulforhodamine B assay; format: functional; conditions: read-out: GI
MDA-MB-435 = assay: Antitumor activity against human MDA-MB-435 cells assessed as cell growth inhibition at 10 uM incubated for 48 hrs by sulforhodamine B assay; format: functional; conditions: read-out: GI
SK-MEL-28 = assay: Antitumor activity against human SK-MEL-28 cells assessed as cell growth inhibition at 10 uM incubated for 48 hrs by sulforhodamine B assay; format: functional; conditions: read-out: GI
IGROV-1 = assay: Antitumor activity against human IGROV1 cells assessed as cell growth inhibition at 10 uM incubated for 48 hrs by sulforhodamine B assay; format: functional; conditions: read-out: GI
SN12C = assay: Antitumor activity against human SN12C cells assessed as cell growth inhibition at 10 uM incubated for 48 hrs by sulforhodamine B assay; format: functional; conditions: read-out: GI
MCF7 = assay: Antitumor activity against human MCF7 cells assessed as cell growth inhibition at 10 uM incubated for 48 hrs by sulforhodamine B assay; format: functional; conditions: read-out: GI
MDA-MB-231 = assay: Antitumor activity against human MDA-MB-231/ATCC cells assessed as cell growth inhibition at 10 uM incubated for 48 hrs by sulforhodamine B assay; format: functional; conditions: read-out: GI
Calf thymus DNA [1] = assay: Binding affinity to calf thymus DNA assessed as hypochromic effect by measuring decrease in intensity of absorption band at 398 nm at 20 uM by UV-Vis absorption spectrophotometric method; conditions: Bos taurus
A549 = assay: Cytotoxicity against human A549/ATCC assessed as reduction in cell viability at 0.1 uM after 48 hrs by MTT assay; format: functional
HEK293 [2] = assay: Cytotoxicity against human HEK293 assessed as reduction in cell viability at 100 uM after 48 hrs by MTT assay; format: cell-based; conditions: hek293, 48 h
HEK293 [3] = assay: Cytotoxicity against human HEK293 assessed as reduction in cell viability at 10 uM after 48 hrs by MTT assay; format: cell-based; conditions: hek293, 48 h
HEK293 [4] = assay: Cytotoxicity against human HEK293 assessed as reduction in cell viability at 1 uM after 48 hrs by MTT assay; format: cell-based; conditions: hek293, 48 h
Calf thymus DNA [5] = assay: Binding affinity to calf thymus DNA assessed as DNA intercalation by measuring increase in melting temperature of DNA at 10 uM by thermal denaturation based spectrophotometric analysis; format: nucleic-acid assay; conditions: Bos taurus
Calf thymus DNA [6] = assay: Binding affinity to calf thymus DNA assessed as quenching in emission band at 600 nm by ethidium bromide competitive displacement assay; format: nucleic-acid assay; conditions: Bos taurus
Calf thymus DNA [7] = assay: Binding affinity to calf thymus DNA assessed as bimolecular quenching constant by ethidium bromide competitive displacement assay; format: nucleic-acid assay; conditions: Bos taurus
Calf thymus DNA [8] = assay: Binding affinity to calf thymus DNA (unknown origin) assessed as binding constant by ethidium bromide competitive displacement assay; format: nucleic-acid assay; conditions: Bos taurus
Calf thymus DNA [9] = assay: Binding affinity to calf thymus DNA assessed as DNA intercalation by measuring increase in intensity of CD band at 281 nm at 1 uM by CD spectroscopy; format: nucleic-acid assay; conditions: Bos taurus
DNA [10] = assay: Binding affinity to human DNA in blood assessed as Stern-Volmer quenching constant by fluorescence emission spectrum analysis; format: tissue-based
DNA [11] = assay: Binding affinity to human DNA in blood assessed as binding constant by fluorescence emission spectrum analysis; format: tissue-based
Albumin [12] = target: T1, Albumin (Bos taurus, UniProt P02769); assay: Binding affinity to bovine serum albumin assessed as binding constant by UV-vis absorption spectral titration analysis based Benesi-Hildebrand equation analysis; format: ADME, cell-free; conditions: cattle
T1 sequence (P02769 whole entry): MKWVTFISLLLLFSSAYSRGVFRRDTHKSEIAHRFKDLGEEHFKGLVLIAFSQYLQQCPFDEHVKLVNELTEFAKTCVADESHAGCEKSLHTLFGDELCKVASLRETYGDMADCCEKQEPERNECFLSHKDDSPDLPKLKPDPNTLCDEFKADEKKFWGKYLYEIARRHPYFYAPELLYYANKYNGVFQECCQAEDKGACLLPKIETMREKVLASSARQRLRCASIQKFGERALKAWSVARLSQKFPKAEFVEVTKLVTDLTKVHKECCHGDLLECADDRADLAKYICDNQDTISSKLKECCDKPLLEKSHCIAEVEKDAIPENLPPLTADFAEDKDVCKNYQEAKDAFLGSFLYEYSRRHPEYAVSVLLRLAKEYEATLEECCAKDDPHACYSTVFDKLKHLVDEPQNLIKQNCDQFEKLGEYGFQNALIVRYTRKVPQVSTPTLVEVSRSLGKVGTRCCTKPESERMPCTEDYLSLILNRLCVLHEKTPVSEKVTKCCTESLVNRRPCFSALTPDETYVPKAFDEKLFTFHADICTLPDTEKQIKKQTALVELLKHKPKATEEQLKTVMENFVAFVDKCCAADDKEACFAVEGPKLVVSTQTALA

Albumin [13] = target: T1, Albumin; assay: Binding affinity to bovine serum albumin assessed as decrease in fluorescence emission intensity at 350 nm at 0-12 uM by fluorescence emission spectrum analysis; format: ADME, cell-free; conditions: cattle, 0.35 µM
Albumin [14] = target: T1, Albumin; assay: Binding affinity to bovine serum albumin assessed as quenching constant at 298K by fluorescence emission spectrum analysis; format: ADME, cell-free; conditions: cattle
Albumin [15] = target: T1, Albumin; assay: Binding affinity to bovine serum albumin assessed as quenching constant at 308K by fluorescence emission spectrum analysis; format: ADME, cell-free; conditions: cattle
Albumin [16] = target: T1, Albumin; assay: Binding affinity to bovine serum albumin assessed as quenching constant at 318K by fluorescence emission spectrum analysis; format: ADME, cell-free; conditions: cattle
Albumin [17] = target: T1, Albumin; assay: Binding affinity to bovine serum albumin assessed as hydrogen bonding interaction by measuring change in enthalpy at 298K by thermodynamic based analysis; format: ADME, cell-free; conditions: cattle
Albumin [18] = target: T1, Albumin; assay: Binding affinity to bovine serum albumin assessed as spontaneous interaction by measuring change in gibbs free energy at 308K by thermodynamic based analysis; format: ADME, cell-free; conditions: cattle
Albumin [19] = target: T1, Albumin; assay: Binding affinity to bovine serum albumin assessed as spontaneous interaction by measuring change in gibbs free energy at 318K by thermodynamic based analysis; format: ADME, cell-free; conditions: cattle
Albumin [20] = target: T2, Albumin (Homo sapiens, UniProt P02768); assay: Binding affinity to human serum albumin assessed as increase in peak absorption intensity at 280 nm at 0-7 uM by UV-Vis absorption spectroscopy; format: ADME, cell-free; conditions: 0.28 µM
T2 sequence (P02768 whole entry): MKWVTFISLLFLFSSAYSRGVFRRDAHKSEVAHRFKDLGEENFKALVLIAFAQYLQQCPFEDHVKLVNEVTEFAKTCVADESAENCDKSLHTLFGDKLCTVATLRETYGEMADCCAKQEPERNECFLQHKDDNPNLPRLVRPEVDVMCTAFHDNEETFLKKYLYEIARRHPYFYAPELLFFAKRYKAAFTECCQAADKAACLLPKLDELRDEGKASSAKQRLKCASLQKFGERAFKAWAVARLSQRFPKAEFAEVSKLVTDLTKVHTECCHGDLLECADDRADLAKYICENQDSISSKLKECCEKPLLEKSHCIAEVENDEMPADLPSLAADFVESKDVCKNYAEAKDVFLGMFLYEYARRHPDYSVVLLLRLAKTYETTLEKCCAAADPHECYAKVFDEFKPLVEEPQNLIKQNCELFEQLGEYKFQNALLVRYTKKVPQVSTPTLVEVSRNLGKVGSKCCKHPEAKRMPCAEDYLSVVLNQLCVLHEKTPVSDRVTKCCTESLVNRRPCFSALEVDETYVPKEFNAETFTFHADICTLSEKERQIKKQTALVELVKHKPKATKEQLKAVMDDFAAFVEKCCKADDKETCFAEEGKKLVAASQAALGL

Albumin [21] = target: T2, Albumin; assay: Binding affinity to human serum albumin assessed as appearance of new absorption band at 400 nm at 0-7 uM by UV-Vis absorption spectroscopy; format: ADME, cell-free; conditions: 0.4 µM
Albumin [22] = target: T2, Albumin; assay: Binding affinity to human serum albumin assessed as decrease in emission peak intensity band at 348 nm at 0-13 uM by fluorescence emission spectroscopy; format: ADME, cell-free; conditions: 0.348 µM
Albumin [23] = target: T2, Albumin; assay: Binding affinity to human serum albumin assessed as quenching constant by fluorescence emission spectroscopy; format: ADME, cell-free
Albumin [24] = target: T2, Albumin; assay: Binding affinity to human serum albumin assessed as binding constant by fluorescence emission spectroscopy; format: ADME, cell-free

O=C1NC(=O)/C(=C/c2ccc(-c3nc4c5ccccc5c5ccccc5c4[nH]3)cc2)S1
inhibition of growth at 10 µM (MOLT-4): 47.1% | inhibition of growth at 10 µM (EKVX): 11.5% | inhibition of growth at 10 µM (HOP-92): 21.4% | inhibition of growth at 10 µM (NCI-H226): < 10% | inhibition of growth at 10 µM (NCI-H23): 29% | inhibition of growth at 10 µM (COLO 205): < 10% | inhibition of growth at 10 µM (HCT-116): 65.5% | inhibition of growth at 10 µM (HCT-15): 50% | inhibition of growth at 10 µM (SNB-19): 18.1% | inhibition of growth at 10 µM (SNB-75): < 10% | inhibition of growth at 10 µM (U-251): 30.3% | inhibition of growth at 10 µM (LOX IMVI): 36.7% | inhibition of growth at 10 µM (Malme-3M): 14.8% | inhibition of growth at 10 µM (MDA-MB-435): 67.4% | inhibition of growth at 10 µM (SK-MEL-28): 19.1% | inhibition of growth at 10 µM (IGROV-1): < 10% | inhibition of growth at 10 µM (SN12C): < 10% | inhibition of growth at 10 µM (MCF7): 46.1% | inhibition of growth at 10 µM (MDA-MB-231): 15.6% | Activity (Calf thymus DNA [1]): Active | Activity (A549): 59% | Activity (HEK293 [2]): 15% | Activity (HEK293 [3]): 9% | Activity (HEK293 [4]): 6% | ΔTm (Calf thymus DNA [5]): 7.1 °C | Activity (Calf thymus DNA [6]): Active | Kq (Calf thymus DNA [7]): 6.53 10^12/M/s | Kb (Calf thymus DNA [8]): 1 10^5/M | Activity (Calf thymus DNA [9]): Active | KSV (DNA [10]): 3.46 10^3/M | Kb (DNA [11]): 7.09 10^5/M | Kb (Albumin [12]): 6.57 10^4/M | Activity (Albumin [13]): Active | Kq (Albumin [14]): 8.42 10^13/M/sec | Kq (Albumin [15]): 8.15 10^13/M/sec | Kq (Albumin [16]): 3.51 10^13/M/sec | deltaH (Albumin [17]): -2.92 kcal/mol | deltaG (Albumin [18]): -9.21 kcal/mol | deltaG (Albumin [19]): -9.41 kcal/mol | Activity (Albumin [20]): Active | Activity (Albumin [21]): Active | Activity (Albumin [22]): Active | Kq (Albumin [23]): 3.01 10^14/M/s | Kb (Albumin [24]): 7.29 10^6/M
